These results are taken from ChEMBL document CHEMBL3856234, “Development of Multifunctional Pyrimidinylthiourea Derivatives as Potential Anti-Alzheimer Agents” (J Med Chem, 2016).

In brackets after ≈: the same amount, converted by molar mass. Activity calls are given as the source filed them. The calls are words filed in the database; no cut-off is given here. Where only a bound is given, the exact number is not on record here.

The target in series [1] is T1, Acetylcholinesterase (Rattus norvegicus, UniProt P37136).
T1 sequence (P37136 whole entry): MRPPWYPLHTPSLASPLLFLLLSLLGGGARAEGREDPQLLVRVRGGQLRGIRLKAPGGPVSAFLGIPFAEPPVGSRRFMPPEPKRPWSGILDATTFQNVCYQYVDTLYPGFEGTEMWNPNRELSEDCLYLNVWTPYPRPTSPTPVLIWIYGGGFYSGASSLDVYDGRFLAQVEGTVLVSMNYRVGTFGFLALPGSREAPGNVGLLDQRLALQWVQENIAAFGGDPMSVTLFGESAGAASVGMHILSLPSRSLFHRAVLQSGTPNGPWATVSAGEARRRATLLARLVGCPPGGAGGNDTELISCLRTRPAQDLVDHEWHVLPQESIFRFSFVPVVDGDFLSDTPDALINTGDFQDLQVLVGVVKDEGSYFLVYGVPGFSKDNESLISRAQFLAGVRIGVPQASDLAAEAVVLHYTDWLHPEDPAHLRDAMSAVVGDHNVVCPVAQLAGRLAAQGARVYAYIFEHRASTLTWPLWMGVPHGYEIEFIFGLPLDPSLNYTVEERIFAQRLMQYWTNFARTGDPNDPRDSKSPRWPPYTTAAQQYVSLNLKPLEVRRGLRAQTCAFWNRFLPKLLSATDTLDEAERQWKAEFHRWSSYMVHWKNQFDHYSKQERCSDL
Nature of the series: Inhibition of rat cortex AChE using acetylthiocholine iodide as substrate measured after 20 mins by Ellman's method. (In general: In Ellman's method for cholinesterases, released thiocholine reacts with DTNB.)

Series [2] in a line: Inhibition of rat serum BuChE using butyrylthiocholine as substrate measured after 20 mins by Ellman's method.
The nature of series [3]: Metal chelating activity assessed as Cu2+-compound complex formation at 40 uM measured after 1 hr by UV-vis spectroscopic analysis. In kind it is physicochemical.
Series [4] is described as follows: Metal chelating activity assessed as Fe2+-compound complex formation at 40 uM measured after 1 hr by UV-vis spectroscopic analysis. In kind it is physicochemical.
A short description of series [5]: Metal chelating activity assessed as Fe3+-compound complex formation at 40 uM measured after 1 hr by UV-vis spectroscopic analysis. It counts as physicochemical.
A short description of series [6]: Metal chelating activity assessed as Zn2+-compound complex formation at 40 uM measured after 1 hr by UV-vis spectroscopic analysis. In kind it is physicochemical.
Series [7] can be described thus: Cytotoxicity against human SH-SY5Y cells assessed as reduction in cell viability at 10 and 30 uM measured after 24 hrs by MTT assay. In kind it is toxicity, cell-based. Background: Tetrazolium dyes change colour on reduction, which living cells bring about.
A short description of series [8]: Cytotoxicity against human SH-SY5Y cells assessed as reduction in cell viability at 100 uM measured after 24 hrs by MTT assay. In kind it is toxicity, cell-based.
Series [9] can be described thus: Cytotoxicity against human SH-SY5Y cells assessed as reduction in cell viability after 24 hrs in presence of Cu2+ ion by MTT assay. In kind it is toxicity, cell-based.
Series [10] in a line: Permeability of the compound in PBS/EtOH (7:3) buffer measured after 10 hrs by PAMPA assay. It counts as ADME. The following applies: read-out: Peff. For orientation: In PAMPA a lipid-coated filter parts donor from acceptor wells.
Series [11] can be described thus: Solubility of the compound in water measured after 24 hrs by HPLC analysis. It counts as physicochemical.
The species named for series [12] is Rattus norvegicus. Nature of the series: Inhibition of rat serum BuChE at 40 uM using butyrylthiocholine as substrate measured after 20 mins by Ellman's method relative to control.
Series [13] is filed under the species Rattus norvegicus. As to the kind of experiment: Selectivity index, ratio of IC50 for rat serum BuChE to IC50 for rat cortex AChE.
The nature of series [14]: Antioxidant activity assessed as trolox equivalent of AAPH radical scavenging activity preincubated for 10 mins followed by AAPH challenge measured every min for 180 mins by ORAC-FL assay. In kind it is functional.
A short description of series [15]: Inhibition of cupric ion-induced aggregation of amyloid beta (1 to 42) (unknown origin) at compound:amyloid beta (1 to 42):Cu2+ ratio of 2:1:1 measured after 24 hrs by TEM analysis.
In series [16] the test system is SH-SY5Y. Nature of the series: Neuroprotective activity in human SH-SY5Y cells assessed as protection against Cu2+ induced amyloid-beta (1 to 42) neurotoxicity by measuring increase in cell viability at compound:amyloid-beta (1 to 42):Cu2+ ratio of 2:1:1 after 24 hrs by MTT assay relative to control. In kind it is functional, cell-based.
A short description of series [17]: Antioxidant activity assessed as inhibition of Cu2+-induced CCA […] to 7-hydroxy-CCA by measuring decrease in hydroxyl radical production at 10 uM in presence of ascorbate by fluorescence assay.
Series [18] in a line: Inhibition of cupric ion-induced aggregation of amyloid beta (1 to 42) (unknown origin) at 50 uM measured after 24 hrs by dot blot assay.
The subject of series [19] is Mus musculus. Nature of the series: Cognitive enhancing effect against scopolamine-induced memory deficit in ICR mouse assessed as reduction in escape latency at 200 mg/kg, po administered through gavage 1 hr before scopolamine-challenge measured after 20 mins by passageway water maze test. It counts as functional, organism-based.
Series [20] concerns Mus musculus. Nature of the series: Cognitive enhancing effect against scopolamine-induced memory deficit in ICR mouse assessed as reduction in number of errors at 200 mg/kg, po administered through gavage 1 hr before scopolamine-challenge measured after 20 mins by passageway water maze test. In kind it is functional, organism-based.
A short description of series [21]: Plasma concentration in ICR mouse at 200 mg/kg administered through oral gavage measured after 1 hr by LC-MS/MS analysis. It counts as ADME, organism-based.
Series [22] in a line: Drug uptake in ICR mouse brain cortex at 200 mg/kg administered through oral gavage measured after 1 hr by LC-MS/MS analysis. In kind it is ADME, organism-based. The following applies: read-out: Drug uptake.
Series [23] in a line: Drug uptake in ICR mouse brain hippocampus at 200 mg/kg administered through oral gavage measured after 1 hr by LC-MS/MS analysis. It counts as ADME, organism-based. The following applies: read-out: Drug uptake.
Series [24] can be described thus: Ratio of drug level in brain cortex to plasma in ICR mouse at 200 mg/kg administered through oral gavage. It counts as ADME, organism-based. The following applies: read-out: logBB (converted).
Series [25] in a line: Ratio of drug level in brain hippocampus to plasma in ICR mouse at 200 mg/kg administered through oral gavage. In kind it is ADME, organism-based. As to conditions: read-out: logBB (converted).

As usually defined, the IC50 is the concentration that gives 50% inhibition. By solubility is commonly meant the dissolved amount per volume that the medium holds. A lower solubility goes with a poorly soluble substance. Usually inhibition stands for the drop in the measured response relative to a control, in per cent.

As to `CCNC(=S)Nc1cc(-n2cnc(CN3CCCC3)c2)ncn1` [listing 1 of 2 here], the IC50 was 67 nM in series [1] and over 40000 nM in series [2]. For the same molecule, the Activity entry in series [3] was “Active”; in series [4], “Active”; in [5] it was “Active”; in series [6], “Active”; in series [7], “Non-Toxic”; in series [8] it was “Toxic”. Also, the Activity result in [9] is on record as “Non-Toxic”. The Papp at 10 h in series [10] turned out to be 1.15 ×10⁻⁶ cm/s. This molecule returned a solubility at 24 h in [11] of 340 µg/mL (≈ 1030 µM).
Regarding `CCCN(CCC)Cc1cn(-c2cc(NC(=S)NCC)ncn2)cn1` [listing 1 of 2 here], the IC50 in series [1] was 204 nM; in series [2], over 40000 nM. Besides, the Activity result in series [3] is listed as “Active”; in [4], “Active”; in [5] it was “Active”; in series [6], “Active”; in series [7], “Non-Toxic”; in series [8], “Toxic”. In addition, in series [9], the Activity result is reported as “Non-Toxic”. Moreover, in [10], the Papp at 10 h turned out to be 7.5 ×10⁻⁶ cm/s. For the same molecule, the solubility at 24 h in series [11] came out at 58 µg/mL (≈ 160 µM).
`CCNC(=S)Nc1cc(-n2cnc(CN3CCCC3)c2)ncn1` [listing 2 of 2 here] yielded an inhibition in series [12] of 33.5%. Further, the Ratio IC50 in series [13] was over 597. The Activity (umolequiv/umol) in series [14] came to 1.2. The inhibition result in series [15], in series [17] and in [18] was “Active” throughout. In [16], the outcome was Active.
As for `c1cc(-n2cnc(CN3CCCC3)c2)ncn1`, the Activity (umolequiv/umol) in series [14] is -0.01. Besides, the result in series [3], in [4], in series [5] and in series [6] was Active.
In turn, `CCCN(CCC)Cc1cn(-c2cc(NC(=S)NCC)ncn2)cn1` [listing 2 of 2 here] gave an inhibition in series [12] of 32.8%. In addition, the Ratio IC50 in series [13] is over 196. The Activity (umolequiv/umol) in series [14] turned out to be 1.28. The inhibition result in series [15], in series [17] and in series [18] was “Active” each time. For the same molecule, the outcome in series [16], in [19] and in [20] was Active.
In [11], `CCCN(CCC)Cc1cn(-c2cc(NC(=S)NCC)ncn2)cn1.Cl` yielded a solubility at 24 h of 3380 µg/mL. Further, the figures for the concentration at 1 h in series [21], in [22] and in series [23] were 1740 ng/mL, 296 ng/g and 579 ng/g, respectively. Moreover, the figures for the Kp in series [24] and in series [25] were 0.141 and 0.324, respectively.
